Results from ChEMBL document CHEMBL1140387, “1-Aryl-3,4-dihydro-1H-quinolin-2-one derivatives, novel and selective norepinephrine reuptake inhibitors” (Bioorg Med Chem Lett, 2005).

How the values were obtained:
[1] = target: T1, Sodium-dependent serotonin transporter (Homo sapiens, UniProt P31645); test: Percentage displacement of [3H]citalopram radioligand from serotonin transporter at concentration of 100 nM
Target sequence in this assay (P31645 whole entry, looked up): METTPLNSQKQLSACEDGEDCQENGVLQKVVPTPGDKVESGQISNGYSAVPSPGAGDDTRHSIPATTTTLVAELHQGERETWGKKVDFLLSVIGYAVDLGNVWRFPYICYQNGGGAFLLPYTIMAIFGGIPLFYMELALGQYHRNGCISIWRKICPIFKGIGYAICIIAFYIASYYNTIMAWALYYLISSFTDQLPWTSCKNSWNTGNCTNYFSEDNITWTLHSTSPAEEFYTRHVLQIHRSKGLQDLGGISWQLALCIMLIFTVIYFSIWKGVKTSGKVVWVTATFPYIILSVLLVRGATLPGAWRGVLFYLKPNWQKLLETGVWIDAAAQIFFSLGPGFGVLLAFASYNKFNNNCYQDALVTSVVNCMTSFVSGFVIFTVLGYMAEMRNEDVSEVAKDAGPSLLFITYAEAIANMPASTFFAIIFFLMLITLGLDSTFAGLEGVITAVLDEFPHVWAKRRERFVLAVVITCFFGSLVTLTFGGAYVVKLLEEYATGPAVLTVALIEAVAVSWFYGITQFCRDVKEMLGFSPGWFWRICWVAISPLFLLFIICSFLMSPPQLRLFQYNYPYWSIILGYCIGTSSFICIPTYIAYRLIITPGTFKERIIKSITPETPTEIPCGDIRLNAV

[2] = target: T2, Sodium-dependent dopamine transporter (Homo sapiens, UniProt Q01959); test: Percentage displacement of [3H]WIN-35428 radioligand from dopamine transporter at concentration of 1000 nM
T2 sequence (Q01959 whole entry): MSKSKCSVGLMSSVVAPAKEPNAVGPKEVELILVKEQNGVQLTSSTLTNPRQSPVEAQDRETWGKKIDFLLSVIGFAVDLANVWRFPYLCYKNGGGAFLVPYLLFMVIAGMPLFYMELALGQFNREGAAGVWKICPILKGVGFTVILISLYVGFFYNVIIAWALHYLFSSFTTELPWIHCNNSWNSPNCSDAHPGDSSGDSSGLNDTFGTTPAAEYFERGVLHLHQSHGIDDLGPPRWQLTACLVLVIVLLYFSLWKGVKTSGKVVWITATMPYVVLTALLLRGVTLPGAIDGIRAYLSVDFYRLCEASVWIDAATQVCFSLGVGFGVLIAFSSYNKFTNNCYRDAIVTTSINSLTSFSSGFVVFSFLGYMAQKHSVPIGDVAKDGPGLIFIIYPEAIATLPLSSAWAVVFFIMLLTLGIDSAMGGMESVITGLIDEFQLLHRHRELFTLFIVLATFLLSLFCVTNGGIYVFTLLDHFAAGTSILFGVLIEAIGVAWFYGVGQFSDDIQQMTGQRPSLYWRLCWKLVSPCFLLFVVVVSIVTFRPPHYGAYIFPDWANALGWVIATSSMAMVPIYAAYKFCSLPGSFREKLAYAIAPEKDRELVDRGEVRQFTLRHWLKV

[3] = target: T2, Sodium-dependent dopamine transporter; test: Inhibition of monoamine reuptake at dopamine transporter
[4] = target: T1, Sodium-dependent serotonin transporter; test: Inhibition of monoamine reuptake at serotonin transporter
Target sequence in this assay (P31645 whole entry): as the sequence (P31645 whole entry, looked up) above

[5] = target: T3, Sodium-dependent noradrenaline transporter (Homo sapiens, UniProt P23975); test: Inhibition of monoamine reuptake at norepinephrine transporter
T3 sequence (P23975 whole entry): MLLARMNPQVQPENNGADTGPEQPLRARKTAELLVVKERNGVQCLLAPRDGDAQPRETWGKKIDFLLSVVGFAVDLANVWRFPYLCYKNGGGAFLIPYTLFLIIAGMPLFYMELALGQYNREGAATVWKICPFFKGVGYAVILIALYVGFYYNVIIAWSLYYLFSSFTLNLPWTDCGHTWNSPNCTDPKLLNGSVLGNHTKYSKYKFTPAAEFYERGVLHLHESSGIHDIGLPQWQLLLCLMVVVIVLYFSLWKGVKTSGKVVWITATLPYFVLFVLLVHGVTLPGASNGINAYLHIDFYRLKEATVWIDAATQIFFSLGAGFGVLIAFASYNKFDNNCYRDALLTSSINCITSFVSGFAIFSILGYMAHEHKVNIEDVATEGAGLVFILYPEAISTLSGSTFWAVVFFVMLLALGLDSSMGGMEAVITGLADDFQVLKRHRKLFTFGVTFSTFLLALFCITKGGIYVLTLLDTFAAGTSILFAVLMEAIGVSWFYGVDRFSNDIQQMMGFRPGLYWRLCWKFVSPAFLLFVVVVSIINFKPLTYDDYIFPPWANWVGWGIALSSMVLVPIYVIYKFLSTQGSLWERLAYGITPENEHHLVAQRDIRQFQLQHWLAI

[6] = target: T3, Sodium-dependent noradrenaline transporter; test: Percentage displacement of [3H]nisoxetine radioligand from norepinephrine transporter at concentration of 1000 nM

SMILES | Activity [1] [%] | Activity [2] [%] | Ki [3] [nM] | Ki [4] [nM] | Ki [5] [nM] | Activity [6] [%]
CNCCCC1Cc2ccccc2N(c2ccccc2)C1=O (single isomer, unassigned; isomer 1) [listing 1 of 2 here] | 5 | 11 | – | – | – | –
CCC1(CCCNC)Cc2ccccc2N(c2ccc(C)cc2)C1=O (racemic) | 11 | 11 | > 200 | > 100 | 17 | –
CNCCC1Cc2ccccc2N(c2ccccc2)C1=O (single isomer, unassigned; isomer 1) [listing 1 of 2 here] | – | – | > 200 | > 100 | 38 | –
CCCC1(CCCNC)Cc2ccccc2N(c2ccc(C)cc2)C1=O (racemic) | – | 9 | > 200 | 160 | 11 | –
CNCCCC1Cc2ccccc2N(c2ccccc2)C1=O (single isomer, unassigned; isomer 1) [listing 2 of 2 here] | – | – | > 200 | > 100 | 8 | –
CNCCC1Cc2ccccc2N(c2ccccc2)C1=O (single isomer, unassigned; isomer 1) [listing 2 of 2 here] | 1 | 13 | – | – | – | –
CNCCCC1(C)Cc2ccccc2N(c2ccc(C(C)C)cc2)C1=O (racemic) | 5 | 2 | > 200 | > 100 | > 200 | 18
CNCCCC1Cc2ccccc2N(c2ccccc2)C1=O (racemic) [listing 1 of 2 here] | – | – | > 200 | > 100 | 10 | –
CNCCCC1(C)Cc2ccccc2N(c2cc(Cl)cc(Cl)c2)C1=O (racemic) | 10 | 41 | > 200 | > 100 | > 200 | 39
CCc1ccc(N2C(=O)C(CCCNC)Cc3ccccc32)cc1 (racemic) | 3 | 9 | > 200 | > 100 | 150 | –
CNCCCC1Cc2ccccc2N(c2ccccc2)C1=O (stereo in doubt) [listing 1 of 2 here] | – | – | > 200 | > 100 | 190 | –
CCC1(CCCNC)Cc2ccccc2N(c2ccccc2)C1=O (racemic) | 12 | 6 | > 200 | > 100 | 10 | –
CNCCCC1Cc2ccccc2N(c2ccc(Cl)cc2)C1=O (centres undefined) | 8 | 50 | > 200 | > 100 | 21 | –
CNCCCC1Cc2ccccc2N(c2ccc(C)cc2)C1=O (racemic) | 15 | 19 | > 200 | > 100 | 3 | –
CNCCCC1(C)Cc2ccccc2N(c2ccc(F)c(F)c2)C1=O (racemic) | 11 | 50 | > 200 | > 100 | 77 | –
CNCCCC1Cc2cc(Cl)ccc2N(c2ccc(C)cc2)C1=O (racemic) | 15 | 7 | > 200 | > 100 | 6 | –
CCCCC1(CCCNC)Cc2ccccc2N(c2ccc(C)cc2)C1=O (racemic) | – | 18 | > 200 | – | 8 | –
CCCC1(CCCNC)Cc2ccccc2N(c2ccccc2)C1=O (racemic) | 51 | 3 | > 200 | > 100 | 7 | –

SMILES | Activity [1] [%] | Activity [2] [%] | Ki [3] [nM] | Ki [4] [nM] | Ki [5] [nM] | Activity [6] [%]
CNCCCC1(C)Cc2ccccc2N(c2ccc(C)cc2)C1=O (racemic) | 12 | 3 | > 200 | > 100 | 9 | –
CNCCCC1Cc2ccccc2N(c2ccccc2)C1=O (stereo in doubt) [listing 2 of 2 here] | 4 | 5 | – | – | – | –
CNCCCC1(C(C)C)Cc2ccccc2N(c2ccc(C)cc2)C1=O (racemic) | – | 7 | > 200 | – | 150 | –
CNCCCC1Cc2ccccc2N(c2ccc(Cl)c(Cl)c2)C1=O (racemic) | 8 | – | 13 | > 100 | 62 | –
CNCCC1Cc2ccccc2N(c2ccccc2)C1=O (stereo in doubt) [listing 1 of 2 here] | 9 | 9 | – | – | – | –
CNCCCC1(C)Cc2ccccc2N(c2ccccc2)C1=O (racemic) | 9 | 10 | > 200 | > 100 | 44 | –
CCC1(CCCNC)Cc2cc(Cl)ccc2N(c2ccc(C)cc2)C1=O (racemic) | – | 3 | > 200 | 128 | 47 | –
CNCCCC1(C)Cc2ccccc2N(c2cccc(C)c2)C1=O (racemic) | 9 | 9 | > 200 | > 100 | 146 | –
CNCCCCC1Cc2ccccc2N(c2ccccc2)C1=O (centres undefined) | -3 | 12 | > 200 | > 100 | > 200 | 53
CNCCCC1(C)Cc2ccccc2N(c2cc(F)cc(F)c2)C1=O (racemic) | 9 | 19 | > 200 | > 100 | 165 | –
CNCCC1Cc2ccccc2N(c2ccccc2)C1=O (stereo in doubt) [listing 2 of 2 here] | – | – | > 200 | > 100 | 54 | –
CNCCCC1Cc2ccccc2N(c2ccc(F)cc2)C1=O (racemic) | 7 | 5 | > 200 | > 100 | 92 | –
CNCCCC1Cc2cc(F)ccc2N(c2ccc(C)cc2)C1=O (racemic) | 45 | 5 | > 200 | > 100 | 5 | –
CNCCCC1Cc2ccccc2N(c2cccc(Cl)c2)C1=O (racemic) | 7 | 64 | > 200 | > 100 | 79 | –
CNCCCC1Cc2ccccc2N(c2ccc(C(F)(F)F)cc2)C1=O (racemic) | 1 | 12 | > 200 | > 100 | 1430 | –
CNCCCC1Cc2ccccc2N(c2cccc(F)c2)C1=O (racemic) | 9 | 10 | > 200 | > 100 | 18 | –
CNCCCC1(C)Cc2cc(Cl)ccc2N(c2ccc(C)cc2)C1=O (racemic) | 15 | – | – | > 100 | 43 | –
CNCCCC1Cc2ccccc2N(c2ccccc2)C1=O (racemic) [listing 2 of 2 here] | 0 | 24 | – | – | – | –
